Tested on: 556581-035-R-J1-PDC complex spheroid viability
Assay: Anticancer human tumor 556581-035-R-J1-PDC patient-derived ovarian carcinoma cell line growth inhibition
Settings: for IC50: curve of first compound; for viability, T/C: stronger effect = lower value
Procedure, shortened: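 Drug combinations with the LSD1 inhibitor iadademstat tested on tumor cells co-cultured as spheroids with endothelial cells and mesenchymal stem cells. Concentrations descended in half-log increments from clinical Cmax or 10 microM.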

[1] = second compound 0.1 µM, first compound 0.000316 µM
[2] = second compound 0.1 µM, first compound 0.001 µM
[3] = second compound 0.1 µM, first compound 0.00316 µM
[4] = second compound 0.1 µM, first compound 0.01 µM
[5] = second compound 0.1 µM, first compound 0.0316 µM
[6] = second compound 0.1 µM, first compound 0.1 µM
[7] = second compound 0.316 µM, first compound 0.000316 µM
[8] = second compound 0.316 µM, first compound 0.001 µM
[9] = second compound 0.316 µM, first compound 0.00316 µM
[10] = second compound 0.316 µM, first compound 0.01 µM
[11] = second compound 0.316 µM, first compound 0.0316 µM
[12] = second compound 0.316 µM, first compound 0.1 µM
[13] = second compound 1 µM, first compound 0.000316 µM
[14] = second compound 1 µM, first compound 0.001 µM
[15] = second compound 1 µM, first compound 0.00316 µM
[16] = second compound 1 µM, first compound 0.01 µM
[17] = second compound 1 µM, first compound 0.0316 µM
[18] = second compound 1 µM, first compound 0.1 µM
[19] = second compound 3.16 µM, first compound 0.000316 µM
[20] = second compound 3.16 µM, first compound 0.001 µM
[21] = second compound 3.16 µM, first compound 0.00316 µM
[22] = second compound 3.16 µM, first compound 0.01 µM
[23] = second compound 3.16 µM, first compound 0.0316 µM
[24] = second compound 3.16 µM, first compound 0.1 µM
[25] = second compound 10 µM, first compound 0.000316 µM
[26] = second compound 10 µM, first compound 0.001 µM
[27] = second compound 10 µM, first compound 0.00316 µM
[28] = second compound 10 µM, first compound 0.01 µM
[29] = second compound 10 µM, first compound 0.0316 µM
[30] = second compound 10 µM, first compound 0.1 µM
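Also: spheroids exposed to agents for seven days.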
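For viability, T/C in this document: 100% = DMSO vehicle control wells.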

For `CC(C)CC(NC(=O)C(Cc1ccccc1)NC(=O)c1cnccn1)B(O)O` (stereo not given) + NC1CC1c1ccc(-c2cccc(O)c2)cc1, the IC50 (second compound 0.1 µM) was < 0.316 nM, the IC50 (second compound 0.316 µM) was < 0.316 nM and the IC50 (second compound 1 µM) was < 0.316 nM. The IC50 (second compound 3.16 µM) was < 0.316 nM, the IC50 (second compound 10 µM) was < 0.316 nM and the viability, T/C [1] was 1.61%. The viability, T/C [2] was 0.66%, the viability, T/C [3] was 0.12% and the viability, T/C [4] was 0.19%. It also gave a viability, T/C [5] of 0.14%, a viability, T/C [6] of 0.26% and a viability, T/C [7] of 3.63%. The viability, T/C [8] was 0.1%, the viability, T/C [9] was 0.35% and the viability, T/C [10] was 0.1%. It also gave a viability, T/C [11] of 0.09%, a viability, T/C [12] of 0.17% and a viability, T/C [13] of 1.67%. For the same compound, the viability, T/C [14] was 0.11%, the viability, T/C [15] was 0.08% and the viability, T/C [16] was 0.1%. It also gave a viability, T/C [17] of 0.1%, a viability, T/C [18] of 0.2% and a viability, T/C [19] of 1.12%. It also gave a viability, T/C [20] of 0.11%, a viability, T/C [21] of 0.11% and a viability, T/C [22] of 0.08%. It also gave a viability, T/C [23] of 0.09%, a viability, T/C [24] of 0.31% and a viability, T/C [25] of 1.94%. The viability, T/C [26] was 0.27%, the viability, T/C [27] was 0.22% and the viability, T/C [28] was 5.89%. For the same compound, the viability, T/C [29] was 0.35% and the viability, T/C [30] was 0.86%.
For `CC(C)CC(NC(=O)CNC(=O)c1cc(Cl)ccc1Cl)B1OC(=O)CC(CC(=O)O)(C(=O)O)O1` (stereo not given) + NC1CC1c1ccc(-c2cccc(O)c2)cc1, the IC50 (second compound 0.1 µM) was 2.44 nM, the IC50 (second compound 0.316 µM) was 2.84 nM and the IC50 (second compound 1 µM) was 2.78 nM. For the same compound, the IC50 (second compound 3.16 µM) was 2.67 nM, the IC50 (second compound 10 µM) was 2.73 nM and the viability, T/C [1] was 85.1%. The viability, T/C [2] was 95.6%, the viability, T/C [3] was 38.2% and the viability, T/C [4] was 2.07%. It also gave a viability, T/C [5] of 0.71%, a viability, T/C [6] of 0.3% and a viability, T/C [7] of 85.4%. It also gave a viability, T/C [8] of 96%, a viability, T/C [9] of 45.8% and a viability, T/C [10] of 1.79%. For the same compound, the viability, T/C [11] was 1.03%, the viability, T/C [12] was 0.98% and the viability, T/C [13] was 91%. For the same compound, the viability, T/C [14] was 95%, the viability, T/C [15] was 44.5% and the viability, T/C [16] was 0.78%. It also gave a viability, T/C [17] of 0.36%, a viability, T/C [18] of 0.22% and a viability, T/C [19] of 82.8%. For the same compound, the viability, T/C [20] was 85%, the viability, T/C [21] was 44.1% and the viability, T/C [22] was 0.89%. It also gave a viability, T/C [23] of 0.65%, a viability, T/C [24] of 0.31% and a viability, T/C [25] of 85.4%. For the same compound, the viability, T/C [26] was 74.8%, the viability, T/C [27] was 47.1% and the viability, T/C [28] was 3.21%. For the same compound, the viability, T/C [29] was 0.15% and the viability, T/C [30] was 1.14%.
In the case of `Nc1ccccc1NC(=O)c1ccc(CNC(=O)OCc2cccnc2)cc1` + NC1CC1c1ccc(-c2cccc(O)c2)cc1, the IC50 (second compound 0.1 µM) is reported as 87.6 nM, the IC50 (second compound 0.316 µM) is reported as 95.3 nM and the IC50 (second compound 1 µM) is reported as 85.9 nM. It also gave an IC50 (second compound 3.16 µM) of 97.4 nM, an IC50 (second compound 10 µM) of 94 nM and a viability, T/C (second compound 0.1 µM, first compound 0.00949 µM) of 91.9%. For the same compound, the viability, T/C (second compound 0.1 µM, first compound 0.03 µM) was 77.1%, the viability, T/C (second compound 0.1 µM, first compound 0.0949 µM) was 47.3% and the viability, T/C (second compound 0.1 µM, first compound 0.3 µM) was 21.1%. The viability, T/C (second compound 0.1 µM, first compound 0.949 µM) was 6.12%, the viability, T/C (second compound 0.1 µM, first compound 3 µM) was 0.47% and the viability, T/C (second compound 0.316 µM, first compound 0.00949 µM) was 92.1%. For the same compound, the viability, T/C (second compound 0.316 µM, first compound 0.03 µM) was 70.1%, the viability, T/C (second compound 0.316 µM, first compound 0.0949 µM) was 54.5% and the viability, T/C (second compound 0.316 µM, first compound 0.3 µM) was 23.7%. For the same compound, the viability, T/C (second compound 0.316 µM, first compound 0.949 µM) was 8.22%, the viability, T/C (second compound 0.316 µM, first compound 3 µM) was 0.62% and the viability, T/C (second compound 1 µM, first compound 0.00949 µM) was 92.8%. For the same compound, the viability, T/C (second compound 1 µM, first compound 0.03 µM) was 64.3%, the viability, T/C (second compound 1 µM, first compound 0.0949 µM) was 55.9% and the viability, T/C (second compound 1 µM, first compound 0.3 µM) was 24.9%. For the same compound, the viability, T/C (second compound 1 µM, first compound 0.949 µM) was 9.16%, the viability, T/C (second compound 1 µM, first compound 3 µM) was 5.91% and the viability, T/C (second compound 3.16 µM, first compound 0.00949 µM) was 90.2%. The viability, T/C (second compound 3.16 µM, first compound 0.03 µM) was 72.7%, the viability, T/C (second compound 3.16 µM, first compound 0.0949 µM) was 51.5% and the viability, T/C (second compound 3.16 µM, first compound 0.3 µM) was 26.6%. It also gave a viability, T/C (second compound 3.16 µM, first compound 0.949 µM) of 10.4%, a viability, T/C (second compound 3.16 µM, first compound 3 µM) of 0.51% and a viability, T/C (second compound 10 µM, first compound 0.00949 µM) of 86.5%. For the same compound, the viability, T/C (second compound 10 µM, first compound 0.03 µM) was 69.1%, the viability, T/C (second compound 10 µM, first compound 0.0949 µM) was 46.5% and the viability, T/C (second compound 10 µM, first compound 0.3 µM) was 37.3%. For the same compound, the viability, T/C (second compound 10 µM, first compound 0.949 µM) was 10.1% and the viability, T/C (second compound 10 µM, first compound 3 µM) was 0.3%.

— PubChem BioAssay AID1918938 (Molecular Pharmacology Branch, DTP, NCI, 2023)
